Results taken from patent US20220331374A1, “NOVEL SKIN CARE COMPOSITION” (BEIERSDORF AG, priority 2019, published 2022).

How the values were obtained:
C. acnes strain C3 = test: Minimum inhibitory concentration (MIC) of cosmetic excipients, strain C3; assay type: cell-based, Cutibacterium acnes; conditions: % w/vol, incubated anaerobically for 3 days at 37° C., scored visually for growth
Method: (§1) In microbiology, the MIC is the lowest concentration of a chemical which prevents visible growth of bacterium. The resulted MIC value depends both on the microorganism and the test compound. The MIC is determined by preparing concentrations series of the test compound in vitro, incubating the solutions with the separate batches of cultured bacteria, and measuring the results using agar dilution or broth microdilution. For the experiments with C. acnes strains C3 and K8, media comprising yeast extract soy peptone and dextrose were used. The MIC is determined by turbidity.
(§2) A total of 125 cosmetic excipients were tested for their compatibility with C. acnes strains C3 and K8. Hydrophilic compounds were tested in a 96-well plate liquid broth format, poorly soluble compounds were pre-dissolved in DMSO before dilution in liquid broth and hydrophobic or solid compounds were tested in an agar well diffusion test assay. The different dilutions of the test excipients in media were prepared in Falcon tubes and then distributed in a deep well plate using a multistepper. Each well received 1.2 ml and was subsequently inoculated with 120 μl of C. acnes bacteria suspension (strain C3 and K8). From the deep well plate 200 μl were transferred in each well of a clear 96 well replicate plate. The leftover was discarded. The plates were then incubated anaerobically for 3 days at 37° C. Following incubation, the test plates were visually examined and wells were scored for growth or complete growth inhibition to define the minimum inhibitory concentration.
(§3) These excipients are listed in the below table with their compatibility values for C. acnes strains C3 and K8. The compatibility values represent the MIC value of the listed ingredients with the tested C. acnes strains. At this concentration [% w/vol] the tested compound starts interfering with the growth of the tested strains. The compounds can be used in formulations at concentrations below this concentration.

C. acnes strain K8 = test: Minimum inhibitory concentration (MIC) of cosmetic excipients, strain K8; assay type: cell-based, Cutibacterium acnes; conditions: % w/vol, incubated anaerobically for 3 days at 37° C., scored visually for growth
Method: as §1, §2, §3

Row | Compound | COMPATABILITY VALUE C3 [%] (C. acnes strain C3) | COMPATABILITY VALUE K8 [%] (C. acnes strain K8)
1 | CCCCCCC(O)CO (centres unmarked) [caprylyl glycol] | 0.18 | 0.18
2 | O=C(O)CC(O)(CC(=O)O)C(=O)O [citric acid] | 0.33 | 0.08
3 | CCO [ethanol] | 3.75 | 3.75
4 | CC(CO)CO [methylpropanediol] | 4.00 | 4.00
5 | CC(=O)Oc1c(C)c(C)c2c(c1C)CCC(C)(CCC[C@H](C)CCC[C@H](C)CCCC(C)C)O2 (some centres unmarked) [tocopheryl acetate] | 1.00 | 1.00
6 | ethylhexyl cocoate | 10.00 | 10.00
7 | tocopherol | 1.50 | 1.50
